Measured values taken from paper PMC7315737, “The putative Escherichia coli dehydrogenase YjhC metabolises two dehydrated forms of N-acetylneuraminate produced by some sialidases” (Bioscience Reports, 2020).

Biological target: T1, YjhC (Escherichia coli, UniProt P39353)
T1 construct: gene nanY; full-length ORF from ASKA library in pCA24N, N-terminal His6-tag kept, expressed in E. coli BL21
Assay: LC-MS of ligand co-purified with the enzyme
Assay type: binding
Details: co-purified after metal affinity and gel filtration

T1 sequence (P39353 whole entry): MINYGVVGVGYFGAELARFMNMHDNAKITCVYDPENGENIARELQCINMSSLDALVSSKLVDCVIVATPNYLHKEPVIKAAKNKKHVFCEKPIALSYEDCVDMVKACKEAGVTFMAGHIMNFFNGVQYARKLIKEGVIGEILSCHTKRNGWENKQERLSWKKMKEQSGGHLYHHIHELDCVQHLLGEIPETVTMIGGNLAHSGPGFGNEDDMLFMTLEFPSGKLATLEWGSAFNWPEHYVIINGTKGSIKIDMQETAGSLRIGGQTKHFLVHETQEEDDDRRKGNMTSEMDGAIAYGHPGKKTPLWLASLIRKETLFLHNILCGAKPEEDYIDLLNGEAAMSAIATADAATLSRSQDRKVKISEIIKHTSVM

Q: For `NC(=O)C1=CN([C@@H]2O[C@H](COP(=O)(O)OP(=O)(O)OC[C@H]3O[C@@H](n4cnc5c(N)ncnc54)[C@H](O)[C@@H]3O)[C@@H](O)[C@H]2O)C=CC1` [NADH], which co-purified ligand detected is on record?
A: The co-purified ligand detected was “presence of small amounts of NAD^+ and NADH”.
